Results from ChEMBL document CHEMBL1129362 (J Med Chem, 1996).
pEC50, pIC50: −log10 of the molar value.

Key:
[1] = molecular target: T1, Gastrin/cholecystokinin type B receptor (Homo sapiens, UniProt P32239); assay: Binding affinity against human Cholecystokinin type B receptor by displacement of [125I]CCK-8
T1 sequence (P32239 whole entry): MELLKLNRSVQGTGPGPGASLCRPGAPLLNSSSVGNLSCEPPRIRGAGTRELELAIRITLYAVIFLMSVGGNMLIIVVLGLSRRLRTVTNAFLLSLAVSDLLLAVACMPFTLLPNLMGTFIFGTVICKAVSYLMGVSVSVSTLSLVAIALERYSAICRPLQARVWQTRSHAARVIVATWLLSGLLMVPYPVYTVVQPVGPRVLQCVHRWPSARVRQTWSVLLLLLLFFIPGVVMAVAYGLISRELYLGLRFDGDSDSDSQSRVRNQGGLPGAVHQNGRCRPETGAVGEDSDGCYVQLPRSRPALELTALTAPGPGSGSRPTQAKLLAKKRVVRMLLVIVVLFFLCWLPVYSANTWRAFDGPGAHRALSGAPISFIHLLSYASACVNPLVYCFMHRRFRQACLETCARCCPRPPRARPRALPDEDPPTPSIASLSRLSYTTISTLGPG

Cavia porcellus [2] = species: Cavia porcellus; assay: Relative efficacy determined as maximal contraction was observed at 30 uM standardized to CCK-8; assay type: functional
[3] = molecular target: Cholecystokinin receptor (Homo sapiens) (UniProt P32239+P32238); assay: Selectivity ratio between IC50 values of CCK-A and CCK-B; assay type: protein assay
[4] = molecular target: T2, Cholecystokinin receptor type A (Homo sapiens, UniProt P32238); assay: Binding affinity against human Cholecystokinin type A receptor by displacement of [125I]CCK-8
T2 sequence (P32238 whole entry): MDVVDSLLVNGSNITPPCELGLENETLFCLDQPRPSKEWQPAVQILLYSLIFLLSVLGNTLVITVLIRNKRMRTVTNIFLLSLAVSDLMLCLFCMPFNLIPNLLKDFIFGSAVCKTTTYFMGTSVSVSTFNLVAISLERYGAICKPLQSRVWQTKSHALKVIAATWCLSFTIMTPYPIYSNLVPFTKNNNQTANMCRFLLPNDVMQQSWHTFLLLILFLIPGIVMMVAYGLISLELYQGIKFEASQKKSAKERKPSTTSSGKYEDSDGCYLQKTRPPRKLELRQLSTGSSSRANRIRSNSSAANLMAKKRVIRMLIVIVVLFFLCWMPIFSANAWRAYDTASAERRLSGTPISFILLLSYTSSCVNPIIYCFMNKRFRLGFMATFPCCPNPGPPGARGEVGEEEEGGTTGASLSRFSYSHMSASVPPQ

Cavia porcellus [5] = species: Cavia porcellus; assay: Compound was tested for agonist activity of isolated guinea pig gallbladder by using functional assay; conditions: read-out: ED50 (the source's name)
Mus musculus [6] = assay: Effective dose against mouse gallbladder emptying when administered intraperitoneally; assay type: functional
Mus musculus [7] = assay: In vivo percent emptying of mouse gallbladder when administered orally; assay type: functional
Mus musculus [8] = assay: Effective dose against mouse gallbladder emptying when administered orally; assay type: functional
Mus musculus [9] = assay: In vivo percent emptying of mouse gallbladder when administered intraperitoneally; assay type: functional
Mus musculus [10] = assay: Effective dose against mouse gall bladder emptying when administered orally; assay type: functional; conditions: po
Mus musculus [11] = assay: Effective dose against mouse gall bladder emptying when administered intraperitoneally; assay type: functional; conditions: ip
Cavia porcellus [12] = species: Cavia porcellus; assay: Relative efficacy as determined maximal contraction was observed at 30 uM standardized to CCK-8; assay type: functional

| Structure (SMILES) | pIC50 [1] | Max (Cavia porcellus [2]) | Selectivity ratio [3] | pIC50 [4] | pEC50 (Cavia porcellus [5]) | other results |
| --- | --- | --- | --- | --- | --- | --- |
| CC(C)N(C(=O)CN1C(=O)C(C)(Cc2n[nH]c3ccccc23)C(=O)N(c2ccccc2)c2ccccc21)c1ccccc1 (stereo unspecified) | 5.58 | 80% | 20 | 6.92 | 7.70 |  |
| COc1ccc(N(C(=O)CN2C(=O)C(Cc3n[nH]c4ccccc34)C(=O)N(c3ccccc3)c3ccccc32)C(C)C)cc1 (stereo unspecified) |  | 100% | 50 |  | 6.96 | ED50 (Mus musculus [6]): 0.2 nM·kg; Activity (Mus musculus [7]): <90%; ED50 (Mus musculus [8]): 8 nM·kg; Activity (Mus musculus [9]): <90% |
| COc1ccc(N(C(=O)CN2C(=O)C(Cc3nn(C)c4ccccc34)C(=O)N(c3ccccc3)c3ccccc32)C(C)C)cc1 (stereo unspecified) | 5.62 | 90% | 60 | 7.37 | 7.15 |  |
| CC(C)N(C(=O)CN1C(=O)C(Cc2n[nH]c3ccccc23)C(=O)N(c2ccccc2)c2ccccc21)c1ccccc1 (stereo unspecified) | 6.75 | 90% | 2 | 7.06 | 6.85 |  |
| COc1ccc(N(C(=O)CN2C(=O)C(Cc3c[nH]c4ccccc34)C(=O)N(c3ccccc3)c3ccccc32)C(C)C)cc1 (stereo unspecified) | 5.28 | 70% | 480 |  | 6.47 |  |
| COc1ccc(N(C(=O)CN2C(=O)C(C)(Cc3c[nH]c4ccccc34)C(=O)N(c3ccccc3)c3ccccc32)C(C)C)cc1 (stereo unspecified) | 4.76 | 60% | 2090 |  | 6.28 |  |
| CC(C)N(C(=O)CN1C(=O)C(C)(Cc2c[nH]c3ccccc23)C(=O)N(c2ccccc2)c2ccccc21)c1ccccc1 (stereo unspecified) |  | 80% |  | 6.97 | 6.33 |  |
| CC(C)N(C(=O)CN1C(=O)C(C)(CC(=O)Nc2ccccc2)C(=O)N(c2ccccc2)c2ccccc21)c1ccccc1 (stereo unspecified) |  |  |  |  | 6.72 | ED50 (Mus musculus [10]): 1 µmol/kg; Empty (Mus musculus [7]): <70%; ED50 (Mus musculus [11]): 0.03 µmol/kg; Empty (Mus musculus [9]): <70%; Max (Cavia porcellus [12]): 80% |
| COc1ccc(N(C(=O)CN2C(=O)C(C)(Cc3n[nH]c4ccccc34)C(=O)N(c3ccccc3)c3ccccc32)C(C)C)cc1 (stereo unspecified) | 4.16 | 80% | 5100 |  | 6.49 |  |
| COc1ccc(N(C(=O)CN2C(=O)C(Cc3nn(Cc4ccccc4)c4ccccc34)C(=O)N(c3ccccc3)c3ccccc32)C(C)C)cc1 (stereo unspecified) | 4.00 |  |  | 6.51 | 6.47 | Max (Cavia porcellus [12]): 40% |
| CSCC[C@H](NC(=O)[C@H](Cc1ccc(OS(=O)(=O)O)cc1)NC(=O)[C@@H](N)CC(=O)O)C(=O)NCC(=O)N[C@@H](Cc1c[nH]c2ccccc12)C(=O)N[C@@H](CCSC)C(=O)N[C@@H](CC(=O)O)C(=O)N[C@@H](Cc1ccccc1)C(N)=O [SINCALIDE] |  |  |  |  | 8.70 | ED50 (Mus musculus [11]): 3e-05 µmol/kg; Empty (Mus musculus [9]): <95%; Max (Cavia porcellus [12]): 100% |
